# According to US20240279603A1, “METHODS OF PROCESSING ADULT NEURAL CELLS FROM MAMMALS AND ASSAYS THEREOF” (THE TEXAS A&M UNIVERSITY SYSTEM, priority 2021, published 2024):
# Test system: primary cortical neurons
# Assay: Analysis of neurite outgrowth and survival of cultured adult cortical neurons (TUBB3/DAPI high-content imaging)
# Format: cell-based, mouse
# Details: for average neurite length vs Vehicle / number of valid neurons vs Vehicle / total neurite outgrowth vs Vehicle: 150 nM 7-epi Paclitaxel; for average neurite length vs Vehicle / number of valid neurons vs Vehicle / total neurite outgrowth vs Vehicle / overall screening result: 3DIV; for overall screening result: 7-epi Paclitaxel
# Method: The instant example provides an exemplary protocol, method, and application of processing and screening using adult cortical neurons obtained from adult mice. In particular, the instant example used young adult and middle-aged male and female wild-type C57Bl/6 mice in which the young adult group comprised mice of 4-9 weeks of age and the middle-age group comprised mice of 40-48 weeks of age.
# Approximately 20 μL of 50 μg/mL Poly-D-Lysine (PDL, Sigma Aldrich, A-003-M) was added onto the wells of 384-well glass bottom (Brooks Life Sciences, MGB101-1-2-LG-L) or plastic bottom (Greiner-Bio, 781091) plates and incubated inside a 5% CO2 incubator at 37° C. for 48 hours. After incubation, the wells of the plates were washed 5 times with H2O and set to dry overnight at room temperature and were used within 24 hours after drying.
# Mice were euthanized and their brains were extracted and placed in cold Hank's balanced salt solution (HBSS) followed by microdissection of the cortex. Up to 1.25 grams of cortical tissue were placed in gentleMACS™ C tubes (Miltenyi Biotec, #130-093-237), where each tube contained 5 mL of 0.3 mg/mL papain (Worthington, LS003126) diluted in HBSS.
# The gentleMACS™ C tubes were placed on the gentleMACS™ Octo Dissociator with heaters (Miltenyi Biotec, #130-096-427) with heating cuffs attached and underwent the gentleMACS Program 37C_ABDK_01 protocol. After protocol completion, the contents of the gentleMACS™ C Tube were strained through a 70 μm cell strainer (Miltenyi Biotec, #130-110-916) placed on top of a 15 mL conical centrifuge tube. Then, 7 mL of cold Dulbecco's Phosphate-Buffered Saline with glucose and pyruvate (DPBS, Thermo Fisher Scientific, 14287072) was added into each of the 15 mL conical centrifuge tubes on top of the strained cells. The 15 mL tubes were centrifuged at 300×g for 10 minutes at 4° C. before aspirating the supernatant completely.
# Debris removal solution was made by adding 1800 μL of Debris Removal Concentrate (Miltenyi Biotec, #130-109-398) to 6200 μL of cold DPBS. The remaining pellet inside the 15 mL tubes was resuspended with 8 mL of Debris Removal Solution. Very slowly, 4 mL of cold DPBS was dispensed on top of the debris removal solution and cell mixture in each 15 mL tube forming a clear layer on top. The 15 mL tubes were centrifuged at 3000×g for 10 minutes at 4° C. with slow acceleration and deceleration. The top clear and middle debris layers were aspirated leaving the milky mixture beneath the debris layer untouched. 6 mL of DPBS was added onto the milky mixture and mixed gently before centrifuging at 300×g for 5 minutes at 4° C. All supernatant was aspirated afterwards.
# Red Blood Cell Remover Solution was made by mixing 125 μL of Red Blood Cell Lysis Solution 10× (Miltenyi Biotec, #130-094-183) with 1125 μL of H2O. The remaining pellet was resuspended in 1.25 mL of Red Blood Cell Remover Solution and incubated for 10 minutes at 4° C. before the addition of 12 mL of 0.5% bovine serum albumin (BSA, Miltenyi Biotec, #130-091-376) diluted in DPBS. The mixture was centrifuged at 300×g for 5 minutes at 4° C. with the supernatant aspirated completely afterwards. The remaining pellet was resuspended in 80 μL of 0.5% BSA and 20 μL of Non-Neuronal Cells Biotin-Antibody Cocktail (Miltenyi Biotec, #130-115-389) and incubated for 5 minutes at 4° C. Cells were washed by adding 2 mL of 0.5% BSA followed by centrifugation at 300×g for 5 minutes at 4° C. followed by aspiration of the supernatant. The remaining pellet was resuspended in 80 μL of 0.5% BSA and 20 μL of Anti-Biotin MicroBeads (Miltenyi Biotec, #130-115-389) and incubated for 10 minutes at 4° C.
# After the addition of 6 mL 0.5% BSA, the mixture was flowed through 0.5% BSA primed LS columns (Miltenyi Biotec, #130-042-401). The negative fraction containing the majority of neurons was collected and centrifuged at 300×g for 5 minutes at 4° C. and resuspended in neuron media. […]
# [1] = 5 μM (S)-H-1152 vs Vehicle (0.05% DMSO), young adult male mice, 2DIV, 10,000 cells plated per well, two-way ANOVA
# [2] = young adult male mice, 2DIV, relative to 0% DMSO
# [3] = young adult male mice, 2DIV, PDL coated wells, laminin coating 10 μg/mL
compound,measurement,setting,value
CC(=O)O[C@H]1C(=O)[C@]2(C)[C@H](O)C[C@H]3OC[C@@]3(OC(C)=O)[C@H]2[C@H](OC(=O)c2ccccc2)[C@]2(O)C[C@H](OC(=O)[C@H](O)[C@@H](NC(=O)c3ccccc3)c3ccccc3)C(C)=C1C2(C)C [7-epi Paclitaxel],average neurite length vs Vehicle,middle-aged male cohort,significantly increased
same,number of valid neurons vs Vehicle,middle-aged male cohort,without affecting
same,total neurite outgrowth vs Vehicle,middle-aged male cohort,without affecting
same,average neurite length vs Vehicle,young adult female cohort,significantly increased
same,number of valid neurons vs Vehicle,young adult female cohort,significantly decreased
same,total neurite outgrowth vs Vehicle,young adult female cohort,significantly decreased
same,average neurite length vs Vehicle,young adult male cohort,significantly increased
same,number of valid neurons vs Vehicle,young adult male cohort,significantly decreased
same,total neurite outgrowth vs Vehicle,young adult male cohort,significantly decreased
same,overall screening result,middle-aged male neurons,overall positive result
same,overall screening result,young adult neurons,overall negative result
Cc1cncc2cccc(S(=O)(=O)N3CCCNC[C@@H]3C)c12 [(S)-H-1152],average neurite length,[1],significantly increased
same,number of valid neurons,[1],significantly increased
same,slope of the total neurite outgrowth linear regression line against cell plating density,"5 μM (S)-H-1152 vs Vehicle, young adult male mice, 2DIV, 1,500-15,000 cells per well",steeper increase
"C[S+](C)[O-] [DMSO, Dimethyl sulfoxide]",correlation between average neurite length and % DMSO in the media (linear regression),[2],significant negative correlation
same,correlation between number of valid neurons per well and % DMSO in the media (linear regression),[2],significant negative correlation
same,correlation between total neurite outgrowth and % DMSO in the media (linear regression),[2],significant negative correlation
laminin,"average neurite length, change relative to the control group (no B27+ supplement or laminin coating)",[3],did not induce a significant changes
same,"number of valid neurons, change relative to the control group (no B27+ supplement or laminin coating)",[3],did not induce a significant changes
same,"total neurite outgrowth, change relative to the control group (no B27+ supplement or laminin coating)",[3],did not induce a significant changes
